From ChEMBL document CHEMBL1124687, “Analogues of atriopeptin(103-125)amide having high binding selectivity” (J Med Chem, 1989)
Positions of bridges follow the written chain, without caps; N, C: chain ends. Non-standard residues stand in square brackets, D forms with d. Residues, ends and D or L forms follow the SMILES beside them. ξ: configuration not given here. Nva = CCC[C@H](N)C(=O)O; Abu = CC[C@H](N)C(=O)O; ξA = CC(N)C(=O)O

Legend:
[1] = target: T1, Atrial natriuretic peptide receptor 3 (Homo sapiens) (UniProt P17342); assay: Binding affinity for non-vasorelaxant receptor by competitive displacement of [125I]-AP(103-126) from rabbit lung membranes; assay type: tissue-based; conditions: Oryctolagus cuniculus, Membrane, target entry is the homologue from another species
T1 sequence (whole entry): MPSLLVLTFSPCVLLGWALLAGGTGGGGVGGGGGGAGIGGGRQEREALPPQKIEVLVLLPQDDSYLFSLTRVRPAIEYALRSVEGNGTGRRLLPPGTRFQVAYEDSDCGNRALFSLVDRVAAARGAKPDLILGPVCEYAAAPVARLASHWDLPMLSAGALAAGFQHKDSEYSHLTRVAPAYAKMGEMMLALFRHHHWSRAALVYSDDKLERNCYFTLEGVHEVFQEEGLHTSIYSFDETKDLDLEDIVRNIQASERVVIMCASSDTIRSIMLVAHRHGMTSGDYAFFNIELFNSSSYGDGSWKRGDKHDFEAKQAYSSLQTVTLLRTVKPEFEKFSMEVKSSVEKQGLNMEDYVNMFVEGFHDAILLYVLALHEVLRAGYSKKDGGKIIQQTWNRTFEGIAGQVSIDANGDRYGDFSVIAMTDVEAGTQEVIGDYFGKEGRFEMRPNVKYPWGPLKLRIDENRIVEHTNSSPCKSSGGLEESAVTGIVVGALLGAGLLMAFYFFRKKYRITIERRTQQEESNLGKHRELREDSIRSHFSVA

[2] = species on record: Oryctolagus cuniculus; assay: Binding affinity for vasorelaxant receptor by competitive displacement of [125I]-AP(103-126) from rabbit lung membranes; assay type: tissue-based; conditions: Membrane
[3] = target: Atrial natriuretic peptide receptor (Homo sapiens) (UniProt P20594+P16066+P17342); assay: Selectivity factor, ratio of NVR and VR relative binding potency; assay type: protein assay; conditions: Oryctolagus cuniculus

Structure (SMILES) | Relative potency [1] | Relative potency [2] | Ratio [3]
CC[C@H](C)[C@@H]1NC(=O)[C@H](CCCN=C(N)N)NC(=O)CNC(=O)CNC(=O)[C@H](Cc2ccccc2)NC(=O)[C@H](CO)NC(=O)[C@@H](NC(=O)[C@@H](N)CO)CSSC[C@@H](C(=O)N[C@@H](CO)C(=O)N[C@@H](Cc2ccccc2)C(=O)N[C@@H](CCCN=C(N)N)C(N)=O)NC(=O)[C@H](CO)NC(=O)CNC(=O)[C@H](CC(C)C)NC(=O)CNC(=O)[C@H](CO)NC(=O)[C@H](CCC(N)=O)NC(=O)[C@H](C)NC(=O)CNC(=O)[C@H]([C@@H](C)CC)NC(=O)[C@@H](CCCN=C(N)N)NC(=O)[C@H](CC(=O)O)NC1=O | 2 | 0.005 | 400
CC[C@H](C)[C@@H]1NC(=O)[C@H](CCCN=C(N)N)NC(=O)[C@H](CC(=O)O)NC(=O)[C@H]([C@@H](C)CC)NC(=O)[C@H](CCCN=C(N)N)NC(=O)CNC(=O)CNC(=O)[C@H](Cc2ccccc2)NC(=O)CNC(=O)[C@@H](NC(=O)[C@@H](N)CO)CSSC[C@H](C(=O)N[C@@H](CC(N)=O)C(=O)N[C@@H](CO)C(=O)N[C@@H](Cc2ccccc2)C(=O)N[C@@H](CCCN=C(N)N)C(N)=O)NC(=O)CNC(=O)[C@H](CC(C)C)NC(=O)CNC(=O)[C@H](CO)NC(=O)[C@H](CCC(N)=O)NC(=O)[C@H](C)NC(=O)CNC1=O | 1.8 | 0.056 | 32
CC[C@H](C)[C@@H]1NC(=O)[C@H](CCCN=C(N)N)NC(=O)[C@H](CC(=O)O)NC(=O)[C@H]([C@@H](C)CC)NC(=O)[C@H](CCCN=C(N)N)NC(=O)CNC(=O)CNC(=O)[C@H](Cc2ccccc2)NC(=O)[C@H](NC(=O)[C@H](CO)NC(=O)[C@@H](N)CO)CSSC[C@@H](C(=O)N[C@@H](CO)C(=O)N[C@@H](Cc2ccccc2)C(=O)N[C@@H](CCCN=C(N)N)C(N)=O)NC(=O)[C@H](CSC)NC(=O)CNC(=O)[C@H](CC(C)C)NC(=O)CNC(=O)[C@H](CO)NC(=O)[C@H](CCC(N)=O)NC(=O)[C@H](C)NC(=O)CNC1=O | 3.1 | 0.1 | 31
CC[C@H](C)[C@@H]1NC(=O)[C@H](CCCN=C(N)N)NC(=O)[C@H](CC(=O)O)NC(=O)[C@H]([C@@H](C)CC)NC(=O)[C@H](CCCN=C(N)N)NC(=O)CNC(=O)CNC(=O)[C@H](Cc2ccccc2)NC(=O)[C@H](CSC)NC(=O)[C@@H](NC(=O)[C@@H](N)CO)CSSC[C@@H](C(=O)N[C@@H](CC(N)=O)C(=O)N[C@@H](CO)C(=O)N[C@@H](Cc2ccccc2)C(=O)N[C@@H](CCCN=C(N)N)C(N)=O)NC(=O)CNC(=O)[C@H](CC(C)C)NC(=O)CNC(=O)[C@H](CO)NC(=O)[C@H](CCC(N)=O)NC(=O)[C@H](C)NC(=O)CNC1=O (H-SCC(Me)FGGRIDRIGAQSGLGCNSFR-NH2; disulfide 2-19) | 6.6 | 0.28 | 24
CC[C@H](C)[C@@H]1NC(=O)[C@H](CCCN=C(N)N)NC(=O)[C@H](CC(=O)O)NC(=O)[C@H]([C@@H](C)CC)NC(=O)[C@H](CCCN=C(N)N)NC(=O)CNC(=O)CNC(=O)[C@H](Cc2ccccc2)NC(=O)CNC(=O)[C@@H](NC(=O)[C@@H](N)CO)CSSC[C@@H](C(=O)N[C@@H](CO)C(=O)N[C@@H](Cc2ccccc2)C(=O)N[C@@H](CCCN=C(N)N)C(N)=O)NC(=O)CNC(=O)CNC(=O)[C@H](CC(C)C)NC(=O)CNC(=O)[C@H](CO)NC(=O)[C@H](CCC(N)=O)NC(=O)[C@H](C)NC(=O)CNC1=O (H-SCGFGGRIDRIGAQSGLGGCSFR-NH2; disulfide 2-20) | 1.5 | 0.0069 | 217
CC[C@H](C)[C@@H]1NC(=O)[C@H](CCCN=C(N)N)NC(=O)[C@H](CC(=O)O)NC(=O)[C@H]([C@@H](C)CC)NC(=O)[C@H](CCCN=C(N)N)NC(=O)CNC(=O)CNC(=O)[C@H](Cc2ccccc2)NC(=O)[C@H](CO)NC(=O)[C@@H](NC(=O)[C@@H](N)CO)CSSC[C@@H](C(=O)N[C@@H](CC(N)=O)C(=O)N[C@@H](CO)C(=O)N[C@@H](Cc2ccccc2)C(=O)N[C@@H](CCCN=C(N)N)C(N)=O)NC(=O)CNC(=O)[C@H](CC(C)C)NC(=O)CNC(=O)[C@H](CO)NC(=O)[C@H](CCC(N)=O)NC(=O)[C@H](C)NC(=O)CNC1=O (H-SCSFGGRIDRIGAQSGLGCNSFR-NH2; disulfide 2-19) | 3.8 | 0.24 | 16
CC[C@@H]1NC(=O)[C@@H](NC(=O)[C@@H](N)CO)CSSC[C@@H](C(=O)N[C@@H](CC(N)=O)C(=O)N[C@@H](CO)C(=O)N[C@@H](Cc2ccccc2)C(=O)N[C@@H](CCCN=C(N)N)C(N)=O)NC(=O)CNC(=O)[C@H](CC(C)C)NC(=O)CNC(=O)[C@H](CO)NC(=O)[C@H](CCC(N)=O)NC(=O)[C@H](C)NC(=O)CNC(=O)[C@H]([C@@H](C)CC)NC(=O)[C@H](CCCN=C(N)N)NC(=O)[C@H](CC(=O)O)NC(=O)[C@H]([C@@H](C)CC)NC(=O)[C@H](CCCN=C(N)N)NC(=O)CNC(=O)CNC(=O)[C@H](Cc2ccccc2)NC1=O (H-SC[Abu]FGGRIDRIGAQSGLGCNSFR-NH2; disulfide 2-19) | 2.1 | 0.053 | 40
CCC[C@@H]1NC(=O)[C@@H](NC(=O)[C@@H](N)CO)CSSC[C@@H](C(=O)N[C@@H](CC(N)=O)C(=O)N[C@@H](CO)C(=O)N[C@@H](Cc2ccccc2)C(=O)N[C@@H](CCCN=C(N)N)C(N)=O)NC(=O)CNC(=O)[C@H](CC(C)C)NC(=O)CNC(=O)[C@H](CO)NC(=O)[C@H](CCC(N)=O)NC(=O)[C@H](C)NC(=O)CNC(=O)[C@H]([C@@H](C)CC)NC(=O)[C@H](CCCN=C(N)N)NC(=O)[C@H](CC(=O)O)NC(=O)[C@H]([C@@H](C)CC)NC(=O)[C@H](CCCN=C(N)N)NC(=O)CNC(=O)CNC(=O)[C@H](Cc2ccccc2)NC1=O (H-SC[Nva]FGGRIDRIGAQSGLGCNSFR-NH2; disulfide 2-19) | 0.75 | 0.0084 | 89
CCC[C@@H]1NC(=O)CNC(=O)[C@H](CC(C)C)NC(=O)CNC(=O)[C@H](CO)NC(=O)[C@H](CCC(N)=O)NC(=O)[C@H](C)NC(=O)CNC(=O)[C@H]([C@@H](C)CC)NC(=O)[C@H](CCCN=C(N)N)NC(=O)[C@H](CC(=O)O)NC(=O)[C@H]([C@@H](C)CC)NC(=O)[C@H](CCCN=C(N)N)NC(=O)CNC(=O)CNC(=O)[C@H](Cc2ccccc2)NC(=O)[C@H](CCC)NC(=O)[C@@H](NC(=O)[C@@H](N)CO)CSSC[C@@H](C(=O)N[C@@H](CO)C(=O)N[C@@H](Cc2ccccc2)C(=O)N[C@@H](CCCN=C(N)N)C(N)=O)NC1=O (H-SC[Nva]FGGRIDRIGAQSGLG[Nva]CSFR-NH2; disulfide 2-20) | 0.47 | 0.001 | 470
CC[C@H](C)[C@@H]1NC(=O)[C@H](CCCN=C(N)N)NC(=O)[C@H](CC(=O)O)NC(=O)[C@H]([C@@H](C)CC)NC(=O)[C@H](CCCN=C(N)N)NC(=O)CNC(=O)CNC(=O)[C@H](Cc2ccccc2)NC(=O)C(C)NC(=O)[C@@H](NC(=O)[C@@H](N)CO)CSSC[C@@H](C(=O)N[C@@H](CC(N)=O)C(=O)N[C@@H](CO)C(=O)N[C@@H](Cc2ccccc2)C(=O)N[C@@H](CCCN=C(N)N)C(N)=O)NC(=O)CNC(=O)[C@H](CC(C)C)NC(=O)CNC(=O)[C@H](CO)NC(=O)[C@H](CCC(N)=O)NC(=O)[C@H](C)NC(=O)CNC1=O (some centres undefined) (H-SC[ξA]FGGRIDRIGAQSGLGCNSFR-NH2; disulfide 2-19) | 2.2 | 0.088 | 25
CC[C@H](C)[C@@H]1NC(=O)[C@H](CCCN=C(N)N)NC(=O)[C@H](CC(=O)O)NC(=O)[C@H]([C@@H](C)CC)NC(=O)[C@H](CCCN=C(N)N)NC(=O)CNC(=O)CNC(=O)[C@H](Cc2ccccc2)NC(=O)[C@@H](NC(=O)[C@H](CO)NC(=O)[C@@H](N)CO)CSSC[C@@H](C(=O)NCC(=O)N[C@@H](CC(N)=O)C(=O)N[C@@H](CO)C(=O)N[C@@H](Cc2ccccc2)C(=O)N[C@@H](CCCN=C(N)N)C(N)=O)NC(=O)[C@H](CC(C)C)NC(=O)CNC(=O)[C@H](CO)NC(=O)[C@H](CCC(N)=O)NC(=O)[C@H](C)NC(=O)CNC1=O (H-SSCFGGRIDRIGAQSGLCGNSFR-NH2; disulfide 3-18) | 0.91 |  | 1
CC[C@H](C)[C@@H]1NC(=O)[C@H](CCCN=C(N)N)NC(=O)[C@H](CC(=O)O)NC(=O)[C@H]([C@@H](C)CC)NC(=O)[C@H](CCCN=C(N)N)NC(=O)CNC(=O)CNC(=O)[C@H](Cc2ccccc2)NC(=O)[C@@H](NC(=O)[C@H](CO)NC(=O)[C@@H](N)CO)CSSC[C@@H](C(=O)N[C@@H](CC(N)=O)C(=O)N[C@@H](CO)C(=O)N[C@@H](Cc2ccccc2)C(=O)N[C@@H](CCCN=C(N)N)C(N)=O)NC(=O)CNC(=O)[C@H](CC(C)C)NC(=O)CNC(=O)[C@H](CO)NC(=O)[C@H](CCC(N)=O)NC(=O)[C@H](C)NC(=O)CNC1=O (H-SSCFGGRIDRIGAQSGLGCNSFR-NH2; disulfide 3-19) | 1 |  | 1
